Experimental data published in patent US20240000872A1, “NOVEL BACTERIOPHAGE THAT LYSES ACINETOBACTER GENUS BACTERIA HAVING RESISTANCE TO ANTIBIOTICS” (priority 2020, published 2024).

System: Acinetobacter baumannii strains
Assay: Antibiotic susceptibility test (CLSI disk diffusion test method, read per CLSI 2016)
Type: cell-based
Experimental: (§1) Strain identification was performed using a kit such as AT 32 GN system (bioMérieux, Marcy l'Etoile, France). […] In Table 2 below, S, I, and R are the results obtained by evaluating susceptibility to the antibacterial agents, in which ‘S’ means susceptible, ‘I’ means intermediate, and ‘R’ means resistant.
as §1, with “as ATB” for “as AT”, “system (bioMédrieux,” for “system (bioMérieux,”, “Table 6” for “Table 2”
as §1, with “as ATB” for “as AT”, “Table 10” for “Table 2”, “susceptible, T” for “susceptible, ‘I’”

Compound: C[C@H]1COc2c(N3CCN(C)CC3)c(F)cc3c(=O)c(C(=O)O)cn1c23 [Levofloxacin, levofloxacin]
- antibiotic susceptibility class (host strain YMC14/01/C29): R
- antibiotic susceptibility class (host strain YMC14/01/IP122): I
- antibiotic susceptibility class (host strain YMC14/01/L8): R
- antibiotic susceptibility class (host strain YMC14/01/P31): R
- antibiotic susceptibility class (host strain YMC14/01/P117): I
- antibiotic susceptibility class (host strain YMC14/01/P224): R
- antibiotic susceptibility class (host strain YMC14/01/P727): R
- antibiotic susceptibility class (host strain YMC14/01/P728): R
- antibiotic susceptibility class (host strain YMC14/01/R130): R
- antibiotic susceptibility class (host strain YMC14/01/R160): R
- antibiotic susceptibility class (host strain YMC14/01/R198): R
- antibiotic susceptibility class (host strain YMC14/01/R257): R
- antibiotic susceptibility class (host strain YMC14/01/R270): R
- antibiotic susceptibility class (host strain YMC14/01/R324): R
- antibiotic susceptibility class (host strain YMC14/01/R443): R
- antibiotic susceptibility class (host strain YMC14/01/R451): R
- antibiotic susceptibility class (host strain YMC14/01/R560): R
- antibiotic susceptibility class (host strain YMC14/01/R617): R
- antibiotic susceptibility class (host strain YMC14/01/R671): R
- antibiotic susceptibility class (host strain YMC14/01/R732): R
- antibiotic susceptibility class (host strain YMC14/01/R767): R
- antibiotic susceptibility class (host strain YMC14/01/R904): R
- antibiotic susceptibility class (host strain YMC14/01/R905): R
- antibiotic susceptibility class (host strain YMC14/01/R921): R
- antibiotic susceptibility class (host strain YMC14/01/R941): R
- antibiotic susceptibility class (host strain YMC14/01/R958): R
- antibiotic susceptibility class (host strain YMC14/01/R1006): R
- antibiotic susceptibility class (host strain YMC14/01/R1199): R
- antibiotic susceptibility class (host strain YMC14/01/R1659): R
- antibiotic susceptibility class (host strain YMC14/01/R1722): R
- antibiotic susceptibility class (host strain YMC14/01/R1752): R
- antibiotic susceptibility class (host strain YMC14/01/R2429): R
- antibiotic susceptibility class (host strain YMC14/01/R2572): R
- antibiotic susceptibility class (host strain YMC14/01/R2855): R
- antibiotic susceptibility class (host strain YMC14/01/R2945): R
- antibiotic susceptibility class (host strain YMC14/01/R3007): R
- antibiotic susceptibility class (host strain YMC14/01/R3129): R
- antibiotic susceptibility class (host strain YMC14/01/R3317): R
- antibiotic susceptibility class (host strain YMC14/01/R3474): I
- antibiotic susceptibility class (host strain YMC14/01/R3574): R
- antibiotic susceptibility class (host strain YMC14/01/U313): R
- antibiotic susceptibility class (host strain YMC14/01/U318): R
- antibiotic susceptibility class (host strain YMC14/02/L18): R
- antibiotic susceptibility class (host strain YMC14/02/P47): R
- antibiotic susceptibility class (host strain YMC14/02/R1860): R
- antibiotic susceptibility class (host strain YMC14/02/R2417): R
- antibiotic susceptibility class (host strain YMC14/02/R2599): R
- antibiotic susceptibility class (host strain YMC14/02/R2668): R
- antibiotic susceptibility class (host strain YMC14/02/R2758): R
- antibiotic susceptibility class (host strain YMC14/02/R2781): R
- antibiotic susceptibility class (host strain YMC14/02/R3106): R
- antibiotic susceptibility class (host strain YMC14/02/R3419): R
- antibiotic susceptibility class (host strain YMC14/02/U1607): R
- antibiotic susceptibility class (host strain YMC14/03/L9): R
- antibiotic susceptibility class (host strain YMC14/03/P471): R
- antibiotic susceptibility class (host strain YMC14/03/R122): R
- antibiotic susceptibility class (host strain YMC14/03/R217): R
- antibiotic susceptibility class (host strain YMC14/03/R380): R
- antibiotic susceptibility class (host strain YMC14/03/R618): R
- antibiotic susceptibility class (host strain YMC14/03/R2144): R
- antibiotic susceptibility class (host strain YMC14/03/U4616): R
- antibiotic susceptibility class (host strain YMC14/04/R1078): R
- antibiotic susceptibility class (host strain YMC14/04/R1080): R
- antibiotic susceptibility S/I/R (host strain YMC14/06/R2359): R
- susceptibility category (S/I/R) (host strain YMC14/06/R2359): R
- antibiotic susceptibility S/I/R (host strain YMC14/08/R1169): R
- susceptibility category (S/I/R) (host strain YMC14/08/R1169): R
- antibiotic susceptibility S/I/R (host strain YMC14/08/T90): R
- susceptibility category (S/I/R) (host strain YMC14/08/T90): R
- antibiotic susceptibility S/I/R (host strain YMC15/02/R436): R
- susceptibility category (S/I/R) (host strain YMC15/02/R436): R
- antibiotic susceptibility S/I/R (host strain YMC15/02/T28): R
- susceptibility category (S/I/R) (host strain YMC15/02/T28): R
- antibiotic susceptibility S/I/R (host strain YMC15/03/R1604): R
- susceptibility category (S/I/R) (host strain YMC15/03/R1604): R
- antibiotic susceptibility S/I/R (host strain YMC15/09/R1869): R
- susceptibility category (S/I/R) (host strain YMC15/09/R1869): R
- antibiotic susceptibility S/I/R (host strain YMC16/01/P11): R
- susceptibility category (S/I/R) (host strain YMC16/01/P11): R
- antibiotic susceptibility S/I/R (host strain YMC16/01/R123): R
- susceptibility category (S/I/R) (host strain YMC16/01/R123): R
- antibiotic susceptibility S/I/R (host strain YMC16/01/R198): R
- susceptibility category (S/I/R) (host strain YMC16/01/R198): R
- antibiotic susceptibility S/I/R (host strain YMC16/01/R353): R
- susceptibility category (S/I/R) (host strain YMC16/01/R353): R
- antibiotic susceptibility S/I/R (host strain YMC16/01/R380): R
- susceptibility category (S/I/R) (host strain YMC16/01/R380): R
- antibiotic susceptibility S/I/R (host strain YMC16/01/R397): R
- susceptibility category (S/I/R) (host strain YMC16/01/R397): R
- antibiotic susceptibility S/I/R (host strain YMC16/01/R405): R
- susceptibility category (S/I/R) (host strain YMC16/01/R405): R
- antibiotic susceptibility S/I/R (host strain YMC16/03/R4461): R
- susceptibility category (S/I/R) (host strain YMC16/03/R4461): R
- antibiotic susceptibility S/I/R (host strain YMC16/05/R2210): R
- susceptibility category (S/I/R) (host strain YMC16/05/R2210): R
- antibiotic susceptibility S/I/R (host strain YMC16/07/R2512): R
- susceptibility category (S/I/R) (host strain YMC16/07/R2512): R
- antibiotic susceptibility S/I/R (host strain YMC16/09/R2471): R
- susceptibility category (S/I/R) (host strain YMC16/09/R2471): R
- antibiotic susceptibility S/I/R (host strain YMC16/10/R2537): R
- susceptibility category (S/I/R) (host strain YMC16/10/R2537): R
- antibiotic susceptibility S/I/R (host strain YMC16/12/B11422): R
- susceptibility category (S/I/R) (host strain YMC16/12/B11422): R
- antibiotic susceptibility S/I/R (host strain YMC16/12/B11449): R
- susceptibility category (S/I/R) (host strain YMC16/12/B11449): R
- antibiotic susceptibility S/I/R (host strain YMC16/12/B13325): R
- susceptibility category (S/I/R) (host strain YMC16/12/B13325): R
- antibiotic susceptibility S/I/R (host strain YMC16/12/P503): R
- susceptibility category (S/I/R) (host strain YMC16/12/P503): R
- antibiotic susceptibility S/I/R (host strain YMC16/12/R4637): R
- susceptibility category (S/I/R) (host strain YMC16/12/R4637): R
- antibiotic susceptibility S/I/R (host strain YMC17/01/B8053): R
- susceptibility category (S/I/R) (host strain YMC17/01/B8053): R
- antibiotic susceptibility S/I/R (host strain YMC17/01/B10087): R
- susceptibility category (S/I/R) (host strain YMC17/01/B10087): R
- antibiotic susceptibility S/I/R (host strain YMC17/01/B12075): R
- susceptibility category (S/I/R) (host strain YMC17/01/B12075): R
- antibiotic susceptibility S/I/R (host strain YMC17/01/B13454): R
- susceptibility category (S/I/R) (host strain YMC17/01/B13454): R
- antibiotic susceptibility S/I/R (host strain YMC17/01/P518): R
- susceptibility category (S/I/R) (host strain YMC17/01/P518): R
- antibiotic susceptibility S/I/R (host strain YMC17/01/R2812): R
- susceptibility category (S/I/R) (host strain YMC17/01/R2812): R
- antibiotic susceptibility S/I/R (host strain YMC17/02/B14): R
- susceptibility category (S/I/R) (host strain YMC17/02/B14): R
- antibiotic susceptibility S/I/R (host strain YMC17/02/B87): R
- susceptibility category (S/I/R) (host strain YMC17/02/B87): R
- antibiotic susceptibility S/I/R (host strain YMC17/02/B721): R
- susceptibility category (S/I/R) (host strain YMC17/02/B721): R
- antibiotic susceptibility S/I/R (host strain YMC17/02/B4039): R
- susceptibility category (S/I/R) (host strain YMC17/02/B4039): R
- antibiotic susceptibility S/I/R (host strain YMC17/02/B4520): R
- susceptibility category (S/I/R) (host strain YMC17/02/B4520): R
- antibiotic susceptibility S/I/R (host strain YMC17/02/B4864): S
- susceptibility category (S/I/R) (host strain YMC17/02/B4864): S
- antibiotic susceptibility S/I/R (host strain YMC17/02/B8414): R
- susceptibility category (S/I/R) (host strain YMC17/02/B8414): R
- antibiotic susceptibility S/I/R (host strain YMC17/02/P523): R
- susceptibility category (S/I/R) (host strain YMC17/02/P523): R
- antibiotic susceptibility S/I/R (host strain YMC17/02/R541): R
- susceptibility category (S/I/R) (host strain YMC17/02/R541): R
- antibiotic susceptibility S/I/R (host strain YMC17/02/R2392): R
- susceptibility category (S/I/R) (host strain YMC17/02/R2392): R
- antibiotic susceptibility S/I/R (host strain YMC17/03/B4730): R
- susceptibility category (S/I/R) (host strain YMC17/03/B4730): R
- antibiotic susceptibility S/I/R (host strain YMC17/03/B5000): R
- susceptibility category (S/I/R) (host strain YMC17/03/B5000): R
- antibiotic susceptibility S/I/R (host strain YMC17/03/P971): R
- susceptibility category (S/I/R) (host strain YMC17/03/P971): R
- antibiotic susceptibility S/I/R (host strain YMC17/03/R348): R
- susceptibility category (S/I/R) (host strain YMC17/03/R348): R
- antibiotic susceptibility S/I/R (host strain YMC17/03/R585): R
- susceptibility category (S/I/R) (host strain YMC17/03/R585): R
- antibiotic susceptibility S/I/R (host strain YMC17/03/R1888): R
- susceptibility category (S/I/R) (host strain YMC17/03/R1888): R
- antibiotic susceptibility S/I/R (host strain YMC17/03/R3279): R
- susceptibility category (S/I/R) (host strain YMC17/03/R3279): R
- antibiotic susceptibility S/I/R (host strain YMC17/03/R4077): R
- susceptibility category (S/I/R) (host strain YMC17/03/R4077): R
- antibiotic susceptibility S/I/R (host strain YMC17/03/R4607): R
- susceptibility category (S/I/R) (host strain YMC17/03/R4607): R
- antibiotic susceptibility S/I/R (host strain YMC17/04/R488): R
- susceptibility category (S/I/R) (host strain YMC17/04/R488): R
- antibiotic susceptibility S/I/R (host strain YMC17/04/R640): R
- susceptibility category (S/I/R) (host strain YMC17/04/R640): R
- antibiotic susceptibility S/I/R (host strain YMC/17/05/R1095): R
- susceptibility category (S/I/R) (host strain YMC/17/05/R1095): R
